Measurements reported in patent publication EP3685668B1, “COMPOSITION COMPRISING ACIBENZOLAR-S-METHYL AS EFFECTIVE INGREDIENT FOR CONTROLLING BURSAPHELENCHUS XYLOPHILUS DISEASE AND METHOD FOR CONTROLLING BURSAPHELENCHUS XYLOPHILUS USING SAME” (Industry Foundation of Chonnam National University, priority 2017, dated 2019).

Key:
Assay in all cases: qRT-PCR expression of induced resistance gene in pine tree callus
Format in all cases: cell-based
Conditions in all cases: 200 µg/mℓ, 24 hours
[1] = tested on: Antipeptide
Description: (§1) For in vitro analysis of induced resistance, the expression of PR genes and other plant defense-related genes was determined, which are evolved in various defense mechanisms including induced resistance. The primers of sixteen induced resistance-related genes of pine tree used in this invention were listed in the below and elongation factor_1 alpha were used as a reference gene. [Table 4] The primer list of defense resistance-related genes
(§2) After the treatment with 200 µg / mℓ of candidates of the selected induced resistance material, expression of the induced resistance-related gene in pine callus was determined by qRT-PCR using the primer pairs of defense resistance-related genes in Table 4. As a candidate group of an induced resistance material in pine tree, acibenzolar-S-methyl (ASM), TDL (Tiadinil), ITL (Isotianil), PBZ (Probenzole), AZO (Azoxystrobin), VMA (Validamycin A), MeJA (Methyl jasmonate), BABA (DL-3-aminobutyric acid), 2,3-BDO (2,3-Butanediol), GABA (r-Aminobutyric acid), glucan (Glucan), ER (Ergosterol), and AZA (Azelaic acid) were used. For the in vitro analysis of the expression of induced resistance gene in pine callus, the selected induced resistance materials were applied with 500 µℓ of LM liquid medium on a surface of pine tree callus (100 mg) in 12-well microplate to give final concentration of 200 µg/mℓ. Then, the callus surface was sufficiently reacted for 24 hours with the candidate of pine tree induced resistance material by shaking at 50 rpm in a 25 °C shaking incubator under dark condition. RNAs were extracted from the callus after completion of the reaction with an induced resistance material, followed by synthesis of cDNAs. Then, by carrying out qRT-PCR, the expression of induced resistance genes was determined. [Table 5] Expression of induced resistance gene in pine tree callus by TDL, PBZ, ASM, ITL, AZO, VMA, glucan, and AZA
(§3) Based on the results of assay using young plants and gene expression by selected induce resistance materials, it seemed that acibenzolar-S-methyl had the most excellent effect. Thus, the following tests were carried out using acibenzolar-S-methyl only. Expression of the induced resistance genes at different culture time after the chemical treatment was examined. For the in vitro assay, LM medium containing pine tree callus was treated with acibenzolar-S-methyl at concentration of 200 µg / mℓ, followed by reaction for 1 day, 7 days, or 14 days in a 25°C shaking incubator under dark condition. RNAs were extracted from the callus after the reaction followed by synthesis of cDNAs. Then, by carrying out qRT-PCR, the expression of the induced resistance genes was determined. Depending on reaction time after the treatment, i.e., after 1 day, 7 days, or 14 days, the expression of the obtained induced resistance genes was examined. As a result of the in vitro callus assay depending on reaction time after the treatment with acibenzolar-S-methyl, the expression of the induced resistance-related genes is the highest at 1 day after the treatment with acibenzolar-S-methyl and gradually diminished over time, as it is shown in Table 7. In this regard, it is contemplated that the expression of genes acquired by acibenzolar-S-methyl is not maintained in highly expressed state until the pathogen invasion and just memorized with at minimum level so that the energy consumption by plant can be efficiently managed. [Table 7] Expression of induced resistance gene in pine tree callus by acibenzolar-S-methyl depending on reaction time
(§4) To have an in vitro assay according to different methods of treatment with acibenzolar-S-methyl, two separate treatment methods, i.e., surface treatment (spraying treatment) of pine tree callus and direct application of the induced resistance material to an LM medium containing pine tree callus, were performed. […]

[2] = tested on: Extensin
Description: as §1, §2, §3, §4

[3] = tested on: Heat shock 70
Description: as §1, §2, §3, §4

[4] = tested on: Hydroxyproline
Description: as §1, §2, §3, §4

[5] = tested on: Metallothionein
Description: as §1, §2, §3, §4

[6] = tested on: PR_10 family
Description: as §1, §2, §3, §4

[7] = tested on: PR_1b family
Description: as §1, §2, §3, §4

[8] = tested on: PR_2 family
Description: as §1, §2, §3, §4

[9] = tested on: PR_3 family class 1
Description: as §1, §2, §3, §4

[10] = tested on: PR_3 family class 4
Description: as §1, §2, §3, §4

[11] = tested on: PR_4 family
Description: as §1, §2, §3, §4

[12] = tested on: PR_5 family
Description: as §1, §2, §3, §4

[13] = tested on: PR_9 family
Description: as §1, §2, §3, §4

[14] = tested on: Xyloglucan
Description: as §1, §2, §3, §4

| SMILES | Expression of induced resistance gene, Antipeptide [1] | Expression of induced resistance gene, Extensin [2] | Expression of induced resistance gene, Heat shock 70 [3] | Expression of induced resistance gene, Hydroxyproline [4] | Expression of induced resistance gene, Metallothionein [5] | Expression of induced resistance gene, PR_10 family [6] | Expression of induced resistance gene, PR_1b family [7] | Expression of induced resistance gene, PR_2 family [8] | Expression of induced resistance gene, PR_3 family class 1 [9] | Expression of induced resistance gene, PR_3 family class 4 [10] | Expression of induced resistance gene, PR_4 family [11] | Expression of induced resistance gene, PR_5 family [12] | Expression of induced resistance gene, PR_9 family [13] | Expression of induced resistance gene, Xyloglucan [14] |
| --- | --- | --- | --- | --- | --- | --- | --- | --- | --- | --- | --- | --- | --- | --- |
| OCC1=C[C@@H](N[C@H]2C[C@H](CO)[C@@H](O[C@H]3O[C@@H](CO)[C@H](O)[C@@H](O)[C@@H]3O)[C@H](O)[C@H]2O)[C@H](O)[C@@H](O)[C@@H]1O [VMA, Validamycin A] | 2.36 | 0.66 | 2.19 | 2.31 | 0.99 | 1.56 | 0.73 | 0.83 | 1.67 | 2.95 | 1.43 | 4.66 | 1.37 | 1.99 |
| CO/C=C(/C(=O)OC)c1ccccc1Oc1cc(Oc2ccccc2C#N)ncn1 [AZO, Azoxystrobin] | 0.69 | 2.01 | 0.38 | 1.11 | 0.14 | 1.4 | 1.66 | 1.8 | 1.11 | 1.01 | 2.04 | 1.52 | 1.92 | 1.93 |
| NCCCC(=O)O [GABA, r-Aminobutyric acid] | 1.13 | 1.83 | 2.58 | 5.98 | 0.92 | 1.57 | 1.78 | 1.66 | 3.07 | 8.75 | 1.95 | 3.78 | 0.7 | 3.46 |
